From PubChem BioAssay AID2060621 (Molecular Pharmacology Branch, DTP, NCI, 2025)
“And” between values parts separate entries of the source, which are not always exact repeats. Identical values can stand only once.

Tested on: 324938-238-R-J1-PDC complex spheroids viability
Assay: Anticancer human tumor 324938-238-R-J1-PDC patient-derived bladder carcinoma cell line growth inhibition [CLK]
Settings: for viability, T/C: stronger effect = lower value
Procedure, shortened: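 Patient-derived tumor cells grown as complex spheroids with HUVEC endothelial cells and mesenchymal stem cells, treated with drug combinations. Concentrations descend in half-log steps from near clinical Cmax, or from 10 microM if Cmax unknown.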

[1] = curve of first compound, second compound 0.0316 µM
[2] = curve of first compound, second compound 0.1 µM
[3] = curve of first compound, second compound 0.316 µM
[4] = curve of first compound, second compound 1 µM
[5] = curve of first compound, second compound 3.16 µM
[6] = curve of first compound, second compound 10 µM
[7] = second compound 0.0316 µM, first compound 0.0316 µM
[8] = second compound 0.0316 µM, first compound 0.1 µM
[9] = second compound 0.0316 µM, first compound 0.316 µM
[10] = second compound 0.0316 µM, first compound 1 µM
[11] = second compound 0.0316 µM, first compound 3.16 µM
[12] = second compound 0.0316 µM, first compound 10 µM
[13] = second compound 0.1 µM, first compound 0.0316 µM
[14] = second compound 0.1 µM, first compound 0.1 µM
[15] = second compound 0.1 µM, first compound 0.316 µM
[16] = second compound 0.1 µM, first compound 1 µM
[17] = second compound 0.1 µM, first compound 3.16 µM
[18] = second compound 0.1 µM, first compound 10 µM
[19] = second compound 0.316 µM, first compound 0.0316 µM
[20] = second compound 0.316 µM, first compound 0.1 µM
[21] = second compound 0.316 µM, first compound 0.316 µM
[22] = second compound 0.316 µM, first compound 1 µM
[23] = second compound 0.316 µM, first compound 3.16 µM
[24] = second compound 0.316 µM, first compound 10 µM
[25] = second compound 1 µM, first compound 0.0316 µM
[26] = second compound 1 µM, first compound 0.1 µM
[27] = second compound 1 µM, first compound 0.316 µM
[28] = second compound 1 µM, first compound 1 µM
[29] = second compound 1 µM, first compound 3.16 µM
[30] = second compound 1 µM, first compound 10 µM
[31] = second compound 3.16 µM, first compound 0.0316 µM
[32] = second compound 3.16 µM, first compound 0.1 µM
[33] = second compound 3.16 µM, first compound 0.316 µM
[34] = second compound 3.16 µM, first compound 1 µM
[35] = second compound 3.16 µM, first compound 3.16 µM
[36] = second compound 3.16 µM, first compound 10 µM
[37] = second compound 10 µM, first compound 0.0316 µM
[38] = second compound 10 µM, first compound 0.1 µM
[39] = second compound 10 µM, first compound 0.316 µM
[40] = second compound 10 µM, first compound 1 µM
[41] = second compound 10 µM, first compound 3.16 µM
[42] = second compound 10 µM, first compound 10 µM
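Note: viability read after seven days of drug exposure.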
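Throughout, for viability, T/C: 100% = DMSO vehicle control wells.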

## CCCS(=O)(=O)Nc1ccc(F)c(C(=O)c2c[nH]c3ncc(-c4ccc(Cl)cc4)cc23)c1F + CNC(=O)c1ccc(Nc2nc(OC3CCCC3)c3c(-c4ccc5nc(C)oc5c4)c[nH]c3n2)c(OC)c1
[1]
  IC50: 8550 nM
[2]
  IC50: < 31.6 nM
[3]
  IC50: < 31.6 nM
[4]
  IC50: < 31.6 nM
[5]
  IC50: < 31.6 nM
[6]
  IC50: < 31.6 nM
[7]
  viability, T/C: 89.8%
[8]
  viability, T/C: 89.2%
[9]
  viability, T/C: 92.1%
[10]
  viability, T/C: 103%
[11]
  viability, T/C: 98.6%
[12]
  viability, T/C: 43%
[13]
  viability, T/C: 31.2%
[14]
  viability, T/C: 32.5%
[15]
  viability, T/C: 29.6%
[16]
  viability, T/C: 29.1%
[17]
  viability, T/C: 35.8%
[18]
  viability, T/C: 33.8%
[19]
  viability, T/C: 19.8%
[20]
  viability, T/C: 18%
[21]
  viability, T/C: 20.9%
[22]
  viability, T/C: 19.3%
[23]
  viability, T/C: 24.4%
[24]
  viability, T/C: 26.1%
[25]
  viability, T/C: 25.1%
[26]
  viability, T/C: 15.8%
[27]
  viability, T/C: 18.2%
[28]
  viability, T/C: 22%
[29]
  viability, T/C: 19.2%
[30]
  viability, T/C: 18.1%
[31]
  viability, T/C: 15.2%
[32]
  viability, T/C: 15.8%
[33]
  viability, T/C: 19.3%
[34]
  viability, T/C: 19.1%
[35]
  viability, T/C: 22.4%
[36]
  viability, T/C: 15.5%
[37]
  viability, T/C: 17.5%
[38]
  viability, T/C: 18.8%
[39]
  viability, T/C: 17.4%
[40]
  viability, T/C: 18.3%
[41]
  viability, T/C: 23.9%
[42]
  viability, T/C: 17.2%

## O=C(c1cc(Cc2n[nH]c(=O)c3ccccc23)ccc1F)N1CCN(C(=O)C2CC2)CC1 + CN1CCN(c2cc(C(=O)Nc3cc4cc(-c5cnn(C)c5)ccc4cn3)ccn2)CC1
[1]
  IC50: 4050 nM
[2]
  IC50: < 31.6 nM
[3]
  IC50: < 31.6 nM
[4]
  IC50: < 31.6 nM
[5]
  IC50: < 31.6 nM
[6]
  IC50: < 31.6 nM
[7]
  viability, T/C: 76.9%
[8]
  viability, T/C: 76.8%
[9]
  viability, T/C: 65.2%
[10]
  viability, T/C: 70.5%
[11]
  viability, T/C: 55.5%
[12]
  viability, T/C: 29.6%
[13]
  viability, T/C: 46.9%
[14]
  viability, T/C: 50.8%
[15]
  viability, T/C: 42.5%
[16]
  viability, T/C: 49.2%
[17]
  viability, T/C: 36.4%
[18]
  viability, T/C: 19.4%
[19]
  viability, T/C: 20.6%
[20]
  viability, T/C: 24.1%
[21]
  viability, T/C: 19.9%
[22]
  viability, T/C: 19.9%
[23]
  viability, T/C: 18.9%
[24]
  viability, T/C: 16.4%
[25]
  viability, T/C: 1.69%
[26]
  viability, T/C: 1.71%
[27]
  viability, T/C: 1.98%
[28]
  viability, T/C: 1.94%
[29]
  viability, T/C: 2.27%
[30]
  viability, T/C: 1.74%
[31]
  viability, T/C: 0.26%
[32]
  viability, T/C: 0.21%
[33]
  viability, T/C: 0.25%
[34]
  viability, T/C: 0.1%
[35]
  viability, T/C: 0.36%
[36]
  viability, T/C: 0.49%
[37]
  viability, T/C: 0.11%
[38]
  viability, T/C: 0.21%
[39]
  viability, T/C: 0.24%
[40]
  viability, T/C: 0.17%
[41]
  viability, T/C: 0.26%
[42]
  viability, T/C: 0.28%

## Cn1ncnc1[C@H]1c2n[nH]c(=O)c3cc(F)cc(c23)N[C@@H]1c1ccc(F)cc1 + CN1CCN(c2cc(C(=O)Nc3cc4cc(-c5cnn(C)c5)ccc4cn3)ccn2)CC1
[1]
  IC50: 8.66 nM
[2]
  IC50: 1.53 nM
[3]
  IC50: < 0.316 nM
[4]
  IC50: < 0.316 nM
[5]
  IC50: < 0.316 nM
[6]
  IC50: < 0.316 nM
Second compound 0.0316 µM, first compound 0.000316 µM
  viability, T/C: 78%
Second compound 0.0316 µM, first compound 0.001 µM
  viability, T/C: 74%
Second compound 0.0316 µM, first compound 0.00316 µM
  viability, T/C: 58.2%
Second compound 0.0316 µM, first compound 0.01 µM
  viability, T/C: 51.9%
[7]
  viability, T/C: 32.5%
[8]
  viability, T/C: 24.4%
Second compound 0.1 µM, first compound 0.000316 µM
  viability, T/C: 57.5%
Second compound 0.1 µM, first compound 0.001 µM
  viability, T/C: 54.8%
Second compound 0.1 µM, first compound 0.00316 µM
  viability, T/C: 43.6%
Second compound 0.1 µM, first compound 0.01 µM
  viability, T/C: 32.7%
[13]
  viability, T/C: 27%
[14]
  viability, T/C: 19.8%
Second compound 0.316 µM, first compound 0.000316 µM
  viability, T/C: 23.8%
Second compound 0.316 µM, first compound 0.001 µM
  viability, T/C: 22.4%
Second compound 0.316 µM, first compound 0.00316 µM
  viability, T/C: 23.1%
Second compound 0.316 µM, first compound 0.01 µM
  viability, T/C: 21.2%
[19]
  viability, T/C: 18.5%
[20]
  viability, T/C: 15%
Second compound 1 µM, first compound 0.000316 µM
  viability, T/C: 0.86%
Second compound 1 µM, first compound 0.001 µM
  viability, T/C: 0.77%
Second compound 1 µM, first compound 0.00316 µM
  viability, T/C: 0.99%
Second compound 1 µM, first compound 0.01 µM
  viability, T/C: 0.51%
[25]
  viability, T/C: 0.6%
[26]
  viability, T/C: 1.4%
Second compound 3.16 µM, first compound 0.000316 µM
  viability, T/C: 0.15%
Second compound 3.16 µM, first compound 0.001 µM
  viability, T/C: 0.2%
Second compound 3.16 µM, first compound 0.00316 µM
  viability, T/C: 0.14%
Second compound 3.16 µM, first compound 0.01 µM
  viability, T/C: 0.09%
[31]
  viability, T/C: 0.12%
[32]
  viability, T/C: 0.14%
Second compound 10 µM, first compound 0.000316 µM
  viability, T/C: 0.07%
Second compound 10 µM, first compound 0.001 µM
  viability, T/C: 0.13%
Second compound 10 µM, first compound 0.00316 µM
  viability, T/C: 0.16%
Second compound 10 µM, first compound 0.01 µM
  viability, T/C: 0.12%
[37]
  viability, T/C: 0.12%
[38]
  viability, T/C: 0.19%

## CC(C)CC(NC(=O)C(Cc1ccccc1)NC(=O)c1cnccn1)B(O)O (stereo not drawn)
Compound 0.000949 µM
  viability, T/C: 63.7% and 55.5%
Compound 0.003 µM
  viability, T/C: 2.77% and 1.54%
Compound 0.00949 µM
  viability, T/C: 0.22% and 0.18%
Compound 0.03 µM
  viability, T/C: 0.44% and 0.2%
Compound 0.0949 µM
  viability, T/C: 0.18% and 0.12%
Compound 0.3 µM
  viability, T/C: 0.35% and 0.13%
Curve of compound
  IC50: 1.23 nM and 1.07 nM
